Assay results published in patent US20110306570A1, “Na/K-Atpase Expression as an Indicator for the Treatment of Cancer” (UNIVERSITY OF TOLEDO, priority 2008, published 2011).

Experiments:
BT20 cells = test: Cell growth curve (cell counting), BT20 cells; type: cell-based, human
Experimental: FIG. 1B: The above three cell lines were subcultured in 12-well plates (50,000 cells/well) and serum starved.
Cell growth curve and cell cycle measurement: Cells were sub-cultured in 12 well plates at 50,000/well in 1 ml culture medium for 24 h. […] At each indicated time point, three wells of control or treated cells were trypsinized and counted. For cell cycle measurement, cells were trypsinized and re-suspended in Citrate buffer (8.55% sucrose, 1.18% Na citrated, 5% DMSO, pH 7.6), and stained with propidium iodide (PI). The stained cells were then analyzed by Flow Cytometry.

Na/K-ATPase α1 = Na/K-ATPase α1 (Homo sapiens, UniProt P05023); test: Na/K-ATPase α1 expression, MDA-MB-435s cells; type: cell-based; design: endogenous in cells; host or cells: MDA-MB-435s; details: 5 nM ouabain, 24 h, N=3, P<0.05
Description: A significant reduction in α1 expression was detected (82±2% of control, N=3, P<0.05). Thus, ouabain-induced changes in α1 expression are clearly correlated with its effects on cell growth.

Na/K-ATPase α1 mRNA = Na/K-ATPase α1 mRNA by RT-PCR, DU145 cells; type: cell-based, human; details: 10 nM ouabain, 24 h
Experimental: Total RNA was extracted and applied for RT-PCR to probe Na/K-ATPase α1 as described in the Experimental Procedures section.
Quantitative RT-PCR: The cells were seeded in 6-cm dishes and serum-starved for 24 h after the confluence reached 90%. […] Total RNA was extracted using TRIzol and subjected to quantitative RT-PCR analysis. The assays were performed on the AB 7500 real time PCR system with the following protocol: 1 cycle (6 min at 95° C.), 40 cycles (30 s at 95° C., 30 s at 52° C., 30 s at 72° C., and 1 min at 85° C.), followed by a dissociation stage to ensure a single product. The reactions are in a total volume of 25 μl, including 1.25 µl of Sybr Green (Invitrogen), 0.125 µl of DNA polymerase (Denville), 2.5 µl of dNTP (Invitrogen), 10 ng of cDNA. Primer pairs were used at 5 μM concentration, and the sequences are:
The relative Na/K-ATPase al gene expression was calculated by comparative threshold (CT) method (ΔΔCT). To normalize the difference amounts of cDNA, GAPDH was used as an internal control.

## C[C@@H]1O[C@@H](O[C@H]2C[C@@H](O)[C@]3(CO)[C@H]4[C@H](O)C[C@]5(C)[C@@H](C6=CC(=O)OC6)CC[C@]5(O)[C@@H]4CC[C@]3(O)C2)[C@H](O)[C@H](O)[C@H]1O [ouabain]
BT20 cells; 50 nM ouabain
  block of cell growth (cell counting): completely block the growth
BT20 cells; 10 and 50 nM ouabain
  cell number as a function of time: significantly reduced the number of BT20 cells
Na/K-ATPase α1
  Na/K-ATPase α1 expression: 82±2 % of control
Na/K-ATPase α1 mRNA
  levels of α1 mRNA: no effect on levels of α1 mRNA
